Data reported in article PMC8518382, “Identification of a Bromodomain‐like Region in 15‐Lipoxygenase‐1 Explains Its Nuclear Localization” (Angewandte Chemie (International Ed. in English), 2021).

How the values were obtained:
15-LOX-1 [1] = biological target: T1, 15-LOX-1 (Homo sapiens, UniProt P16050); experiment: 15-LOX-1 activity assay, UV-absorbance change for linoleic acid conversion; format: biochemical; parameters: His-tag (N); made in house; host or cells: E. coli BL21(DE3); details: for IC50: 10 min pre-incubation at RT, 25 µM linoleic acid, absorbance 234 nm; for Mode of inhibition (Lineweaver–Burk plots): Km constant, Vmax decreases with inhibitor concentration
T1 sequence (P16050 1-662): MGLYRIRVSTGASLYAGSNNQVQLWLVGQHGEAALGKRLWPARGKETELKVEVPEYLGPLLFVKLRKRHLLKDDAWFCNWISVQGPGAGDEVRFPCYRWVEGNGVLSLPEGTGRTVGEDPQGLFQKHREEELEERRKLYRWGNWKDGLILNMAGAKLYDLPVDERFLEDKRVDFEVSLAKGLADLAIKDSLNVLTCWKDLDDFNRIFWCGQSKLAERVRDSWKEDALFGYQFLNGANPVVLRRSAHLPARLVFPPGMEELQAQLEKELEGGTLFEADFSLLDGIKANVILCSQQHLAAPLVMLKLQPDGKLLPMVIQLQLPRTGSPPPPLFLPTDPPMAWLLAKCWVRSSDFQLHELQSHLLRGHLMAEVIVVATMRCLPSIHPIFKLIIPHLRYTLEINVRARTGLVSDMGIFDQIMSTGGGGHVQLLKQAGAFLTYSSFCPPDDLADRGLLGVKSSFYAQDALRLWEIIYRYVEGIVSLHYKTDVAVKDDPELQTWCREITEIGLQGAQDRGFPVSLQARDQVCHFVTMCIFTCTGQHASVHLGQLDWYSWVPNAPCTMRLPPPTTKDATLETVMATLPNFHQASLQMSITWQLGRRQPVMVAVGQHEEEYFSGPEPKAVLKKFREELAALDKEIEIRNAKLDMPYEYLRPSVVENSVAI
Excerpt: In brief, an alkyne‐alcohol was linked to propargyl halide (Cl or Br) using a CuI‐catalyzed Sonogashira cross‐coupling reaction followed by biotinylation of the alcohol using EDCI and HOBt as reagents to provide the desired biotinylated bis‐alkyne probes. The biotinylated bis‐alkynes were subjected to 15‐LOX‐1 binding studies using a 15‐LOX‐1 activity assay based on the UV‐absorbance change for linoleic acid conversion (Figure 1 a). […] Next, we evaluated the effect of the extension of the terminal ethyl substitution of inhibitor 1. […]
empty plasmid was proceed with the same procedure, which lysate was used as the negative control (referred as BL21 control later) in 15-LOX-1 recombinant enzyme inhibition studies.
1.3. Purification of recombinant human 15-LOX-1
The 15-LOX-1 with N-terminal his-tag was produced as described above. After removing the cell debris, the supernatant containing 15-LOX-1 was loaded on a Ni-NTA column (Qiagen, Hilden, Germany) pre-equilibrated with LOX lysis buffer. The column was washed twice with 30 column volume of LOX lysis buffer, and once with 30 column volume of wash buffer (25 mM HEPES, 300 mM NaCl, 25 mM Imidazole, pH 8.0). Later, the 15-LOX-1 was eluted twice with 2 column volume of elution buffer (25 mM HEPES, 300 mM NaCl, 250 mM Imidazole, pH 8.0), followed by desalting with a PD-10 column (Sigma-Aldrich) with LOX storage buffer (25 mM HEPES, 20% Glycerol, pH 7.5). The desalted 15-LOX-1 was further purified and concentrated with Vivaspin Turbo 15 (30.000 MWCO). The protein concentration was determined by Nanodrop spectrophotometry. The 100 μl aliquots of 15-LOX-1 were stored at -20 for further experiments.
15-LOX-1 recombinant enzyme inhibition assay
The 15-LOX-1 inhibition assay has been detailed previously. Briefly, the conversion of linoleic acid to hydroperoxy-(9Z,11E)-octadecadienoic acid (λmax of 234 nm) was used to determine the activity of the 15-LOX-1 enzyme. The conversion rate was the slope of UV-absorbance at 234 nm overtime at the […]
To determine the IC50 of probes, the cell lysate was pre-diluted in LOX assay buffer at a ratio of 1:160. The inhibition assay was done in an F-bottom UV-STAR 96-well plate, in which 50 µl of the diluted enzyme was incubated with 140 µl of a probe diluted in LOX assay buffer for 10 min at room temperature (RT). Later 10 µl of 500 µM linoleic acid dissolved in ethanol was added to the plate to reach a final concentration of 25 µM. The UV-absorbance at 234 nm was determined by a BioTek Synergy H1 plate reader (BioTek, Winooski, VT, USA) . The slope of the 15-LOX-1 sample untreated with the probe was set as 100%, while the slope of the BL21 control sample was set as 0%.
For the determination of enzyme kinetics, a series concentration of linoleic acid was used. Fifty µl of pre-diluted 15-LOX-1 enzyme was incubated with 140 µl of probe solution at a fixed concentration for 10 min at RT. Subsequently, 10 µl of a series concentration of linoleic acid was added to a final concentration ranging from 10 µM to 100 µM. The conversion rate was calculated as the same as […]
described in the IC50 determination assay. Michaelis-Menten plots, Lineweaver-Burk plots, Km, and Vmax, are generated using GraphPad Prism 8.3.0. […]

15-LOX-1 [2] = biological target: T1, 15-LOX-1; experiment: Kitz-Wilson kinetic analysis of 15-LOX-1 inactivation; format: biochemical; parameters: His-tag (N); made in house; host or cells: E. coli BL21(DE3); details: for Ki: read-out: K i (equilibrium binding constant)
Method: Subsequently, Kitz‐Wilson analysis was performed to distinguish the equilibrium binding constant (K i) from the rate of covalent inactivation (k i). The different bis‐alkynes provided remarkably constant k i’s that varied by a factor 3 or less, whereas the K i’s varied by a factor 200 (Table 1). […] Improved non‐covalent binding is an important characteristic for activity‐based labeling because it implies improved specific recognition properties to the target of interest. Therefore, inhibitor 3 has been used for further development of a probe for activity‐based labeling of lipoxygenase activity with 15‐LOX‐1 as a reference enzyme. For convenient discussion, we named inhibitor 3, “Labelox B”. […]
described in the IC50 determination assay. Michaelis-Menten plots, Lineweaver-Burk plots, Km, and Vmax, are generated using GraphPad Prism 8.3.0.
1.5. Kits-Wilson kinetic analysis
The probes inhibit the 15-LOX-1 enzyme with a two-step reaction. First, a probe binds to an enzyme to get a reversible complex, E*I. The dissociation constant of inhibitor (Ki) is from the formation of E*I. Then, the probe forms a covalent bond with the enzyme, which generates an irreversible complex, E-I. The inactivation rate constant (ki) is to describe the rate of E-I generation. To determine these inactivation parameters, Kitz-Wilson analysis was employed. The procedure has been detailed previously

Row | Structure (SMILES) | IC50 (15-LOX-1 [1]) | Mode of inhibition (Lineweaver–Burk plots) (15-LOX-1 [1]) | k i (rate of covalent inactivation) (15-LOX-1 [2]) | Ki (15-LOX-1 [2]) | further results
1 | CCCCCC#CCC#CCCCOC(=O)CCCC[C@@H]1SC[C@@H]2NC(=O)N[C@@H]21 [Probe 7] | > 100 µM | non‐competitive LOX inhibition |  |  | LOX inhibitory potency (words) (15-LOX-1 [1]; structure-activity discussion in text, listed as 7): regain in potency
2 | C#CCOC(=O)CCCC[C@@H]1SCC2NC(=O)NC21 (some centres unmarked) [Probe 9] | > 100 µM |  |  |  | 
3 | CCCC#CCOC(=O)CCCC[C@@H]1SCC2NC(=O)NC21 (some centres unmarked) [Probe 10] | > 100 µM |  |  |  | 
4 | CCC#CCC#CCCOC(=O)CCCC[C@@H]1SC[C@@H]2NC(=O)N[C@@H]21 [Probe 8] | > 100 µM | non‐competitive LOX inhibition |  |  | LOX inhibitory potency (words) (15-LOX-1 [1]; structure-activity discussion in text, listed as 8): did not improve the potency
5 | CCC#CCC#CCCCOC(=O)CCCC[C@@H]1SC[C@@H]2NC(=O)N[C@@H]21 [Probe 5] | 19.8 µM |  | 0.0066 ± 0.0047 min⁻¹ | 38.7 ± 6.33 µM | LOX inhibitory potency (words) (15-LOX-1 [1]; structure-activity discussion): loss of LOX inhibitory potency
6 | CCC#CCC#CCCOC(=O)CCCC[C@@H]1SC[C@@H]2NC(=O)N[C@@H]21 [Probe 4] | 11.1 µM |  | 0.0093 ± 0.0031 min⁻¹ | 16.6 ± 3.29 µM | LOX inhibitory potency (words) (15-LOX-1 [1]; structure-activity discussion in text, listed as 4): loss of LOX inhibitory potency
7 | CCC#CCC#CC(C)OC(=O)CCCC[C@@H]1SCC2NC(=O)NC21 (some centres unmarked) [Probe 2] | > 100 µM |  |  |  | LOX inhibitory potency (words) (15-LOX-1 [1]; structure-activity discussion): potency was lost
8 | CCC#CCC#CCOC(=O)CCCC[C@@H]1SCC2NC(=O)NC21 (some centres unmarked) [Probe 1] | 38.2 µM | non‐competitive LOX inhibition | 0.0136 ± 0.0061 min⁻¹ | 116 ± 19.5 µM | 
9 | CCCCCC#CCC#CCCCOC(=O)CCCC[C@@H]1SC[C@@H]2NC(=O)N[C@@H]21 [Probe 6] |  |  |  |  | LOX inhibitory potency (words) (15-LOX-1 [1]; structure-activity discussion in text, listed as 6): did not improve the potency
